In the assay the test system is IL-1b. Kind of assay: Human Monocyte IL-1b Assay. The class given is cell-based. As to conditions: fresh human whole blood, compound 0.5 h, 100 ng/mL LPS 3.5 h at 37° C., 5 mM ATP 45 min, IL-1b in supernatant by ELISA. Here is the method:
Example 46: Human Monocyte IL-1b Assay
Serially diluted testing compounds were incubated with […] of fresh human whole blood for 0.5 hours. Cells were primed with 100 ng/mL lipopolysaccharide (LPS) for 3.5 hours at 37° C. followed by stimulation with 5 mM ATP for an additional 45 minutes. The concentration of IL-1b concentration in the supernatant was determined with commercially available ELISA kits. Negative controls are wells without stimulation, while positive controls are wells with stimulation but only DMSO without compounds added. After background subtraction, compound treatment wells were then normalized to the positive controls for IC50 calculations.

Structures are written as SMILES. pIC50: −log10 of the molar value.

On to `Cc1cc(C(F)(F)F)cc(O)c1-c1ccc(C(O)C2CCCN(C)C2)nn1` (stereo not shown) [Compound 20, 2-(6-(hydroxy(1-methylpiperidin-3-yl)methyl)pyridazin-3-yl)-3-methyl-5-(trifluoromethyl)phenol], for which the pIC50 (Homo sapiens, Monocyte) was over 6.30.

`CC(c1nnc(-c2ccc(C(F)(F)F)cc2O)c2ccccc12)C1CCCNC1` (stereo not shown) [Compound 22, 2-(4-(1-(piperidin-3-yl)ethyl)phthalazin-1-yl)-5-(trifluoromethyl)phenol]: the pIC50 (Homo sapiens, Monocyte) was over 6.30.

As to `CN1CCC[C@@H]([C@@H](O)c2nnc(-c3ccc(C(F)(F)F)cc3O)c3c2CCC3)C1` (racemic) [Compound 44, 2-(4-((R)-hydroxy((R)-1-methylpiperidin-3-yl)methyl)-6,7-dihydro-5H-cyclopenta[d]pyridazin-1-yl)-5-(trifluoromethyl)phenol], the pIC50 was over 6.30.

In turn, `Cc1cc(C(=NO)C2CCCN(C)C2)nnc1-c1ccc(C(F)(F)F)cc1O` (stereo not shown) [Compound 16, (6-(2-hydroxy-4-(trifluoromethyl)phenyl)-5-methylpyridazin-3-yl)(1-methylpiperidin-3-yl)methanone oxime] gave a pIC50 (Homo sapiens, Monocyte) of over 6.30.

In turn, `Cc1cc(C(O)C2CN(C)C2)nnc1-c1ccc(C(F)(F)F)cc1O` (stereo not shown) [Compound 31, 2-(6-(hydroxy(1-methylazetidin-3-yl)methyl)-4-methylpyridazin-3-yl)-5-(trifluoromethyl)phenol] showed a pIC50 (Homo sapiens, Monocyte) of over 6.30.

`Cc1cc([C@@H](O)[C@@H]2CCCN(C)C2)nnc1-c1ccc(C(F)(F)F)cc1O` [Compound 17A, 2-(6-((S)-hydroxy((R)-1-methylpiperidin-3-yl)methyl)-4-methylpyridazin-3-yl)-5-(trifluoromethyl)phenol] showed a pIC50 (Homo sapiens, Monocyte) of over 6.30.

For the setting “Homo sapiens, Monocyte”, `Cc1c(-c2ccc(C(F)(F)F)cc2O)nnc(C(O)C2CCCN(C)C2)c1C` (stereo not shown) [Compound 1, 2-(6-(hydroxy(1-methylpiperidin-3-yl)methyl)-4,5-dimethylpyridazin-3-yl)-5-(trifluoromethyl)phenol] had a pIC50 of 5.52 to 6.30.

Regarding `Cc1cc(C(O)C2CCCN(C)C2)nnc1-c1ccc(C(F)(F)F)cc1O` (stereo not shown) [Compound 11, 2-(6-(hydroxy(1-methylpiperidin-3-yl)methyl)-4-methylpyridazin-3-yl)-5-(trifluoromethyl)phenol], for the setting “Homo sapiens, Monocyte”, the pIC50 is over 6.30.

Compound `CCN1CCC[C@@H]([C@@H](O)c2cc(C)c(-c3ccc(C(F)(F)F)cc3O)nn2)C1` [Compound 45, 2-(6-((R)-((R)-1-ethylpiperidin-3-yl)(hydroxy)methyl)-4-methylpyridazin-3-yl)-5-(trifluoromethyl)phenol] showed a pIC50 (Homo sapiens, Monocyte) of over 6.30.

`Cc1cc(C(O)C2CCCCN2C)nnc1-c1ccc(C(F)(F)F)cc1O` (stereo not shown) [Compound 39, 2-(6-(hydroxy(1-methylpiperidin-2-yl)methyl)-4-methylpyridazin-3-yl)-5-(trifluoromethyl)phenol]: the pIC50 (Homo sapiens, Monocyte) is over 6.30.

Where the note is “Homo sapiens, Monocyte”, `Oc1cc(C(F)(F)F)ccc1-c1ccc(CC2(O)CCCNC2)nn1` (stereo not shown) [Compound 21, 3-((6-(2-hydroxy-4-(trifluoromethyl)phenyl)pyridazin-3-yl)methyl)piperidin-3-ol] had a pIC50 of 5.00 to 5.52.

For `Cc1c(-c2ccc(C(F)(F)F)cc2O)nnc(C(F)c2cccnc2)c1C` (stereo not shown) [Compound 4, 2-(6-(fluoro(pyridin-3-yl)methyl)-4,5-dimethylpyridazin-3-yl)-5-(trifluoromethyl)phenol], the pIC50 (Homo sapiens, Monocyte) is 5.00 to 5.52.

`Cc1c(-c2ccc(C(F)(F)F)cc2O)nnc(C(C)(O)C2CCCN(C)C2)c1C` (stereo not shown) [Compound 3, 2-(6-(1-hydroxy-1-(1-methylpiperidin-3-yl)ethyl)-4,5-dimethylpyridazin-3-yl)-5-(trifluoromethyl)phenol] had a pIC50 (Homo sapiens, Monocyte) of over 6.30.

The compound `CN1CCC[C@@H]([C@@H](O)c2nnc(-c3ccc(C(F)(F)F)cc3O)c3c2CCC3)C1` (racemic) [Compound 43A, 2-(4-((R)-hydroxy((R)-1-methylpiperidin-3-yl)methyl)-6,7-dihydro-5H-cyclopenta[d]pyridazin-1-yl)-5-(trifluoromethyl)phenol] had a pIC50 (Homo sapiens, Monocyte) of over 6.30.

On to `Cc1cc([C@H](O)[C@@H]2CC[C@H]3CCC(=O)N3C2)nnc1-c1ccc(C(F)(F)F)cc1O` [Compound 37, (6R,8aS)-6-((R)-hydroxy(6-(2-hydroxy-4-(trifluoromethyl)phenyl)-5-methylpyridazin-3-yl)methyl)hexahydroindolizin-3(2H)-one], for which the pIC50 (Monocyte) was 5.52 to 6.30.

Turning to `Cc1cc(C(=O)c2cccnc2)nnc1-c1ccc(C(F)(F)F)cc1O` [Compound 13, (6-(2-hydroxy-4-(trifluoromethyl)phenyl)-5-methylpyridazin-3-yl)(pyridin-3-yl)methanone], the pIC50 (Homo sapiens, Monocyte) is 5.52 to 6.30.

Regarding `Cc1cc([C@@H](O)[C@H]2CCCN(C)C2)nnc1-c1ccc(C(F)(F)F)cc1O` [Compound 17D, 2-(6-((S)-hydroxy((S)-1-methylpiperidin-3-yl)methyl)-4-methylpyridazin-3-yl)-5-(trifluoromethyl)phenol], the negative logarithm of the IC50 (pIC50) (Homo sapiens, Monocyte) is 5.52 to 6.30.

On to `COc1cc(C(F)(F)F)ccc1-c1nnc([C@H](O)[C@@H]2CCCN(C)C2)cc1C` [Compound 24, (R)-(6-(2-methoxy-4-(trifluoromethyl)phenyl)-5-methylpyridazin-3-yl)((R)-1-methylpiperidin-3-yl)methanol], for which, for the setting “Homo sapiens, Monocyte”, the negative logarithm of the IC50 (pIC50) was over 6.30.

Take `Cc1cc([C@@H](O)[C@]2(C)CCCN(C)C2)nnc1-c1ccc(C(F)(F)F)cc1O` [Compound 27B, 2-(6-((S)-((R)-1,3-dimethylpiperidin-3-yl)(hydroxy)methyl)-4-methylpyridazin-3-yl)-5-(trifluoromethyl)phenol]: the pIC50 (Homo sapiens, Monocyte) is 5.00 to 5.52.

`Cc1cc(C(O)[C@@H]2CCN(C)C2)nnc1-c1ccc(C(F)(F)F)cc1O` (stereo partly drawn) [Compound 26, 2-(6-(hydroxy((R)-1-methylpyrrolidin-3-yl)methyl)-4-methylpyridazin-3-yl)-5-(trifluoromethyl)phenol] gave a negative-log IC50 (pIC50) (Homo sapiens, Monocyte) of over 6.30.

As for `Cc1c(CC2CCCN(C)C2)nnc(-c2ccc(C(F)(F)F)cc2O)c1C` (stereo not shown) [Compound 5, 2-(4,5-dimethyl-6-((1-methylpiperidin-3-yl)methyl)pyridazin-3-yl)-5-(trifluoromethyl)phenol], the pIC50 (Homo sapiens, Monocyte) is over 6.30.

For the setting “Homo sapiens, Monocyte”, `Cc1cc(C)c(-c2ccc(C(O)C3CCCN(C)C3)nn2)c(O)c1` (stereo not shown) [Compound 19, 2-(6-(hydroxy(1-methylpiperidin-3-yl)methyl)pyridazin-3-yl)-3,5-dimethylphenol] had a pIC50 of over 6.30.

`[2H][C@@](O)(c1cc(C)c(-c2ccc(C(F)(F)F)cc2O)nn1)[C@@H]1CCCN(C)C1` [Compound 18, 2-(6-((S)-hydroxy((R)-1-methylpiperidin-3-yl)methyl-d)-4-methylpyridazin-3-yl)-5-(trifluoromethyl)phenol]: where the note is “Homo sapiens, Monocyte”, the pIC50 was over 6.30.

`Cc1cc(C(O)C23CCC(CC2)N(C)C3)nnc1-c1ccc(C(F)(F)F)cc1O` (stereo not shown) [Compound 33, 2-(6-(hydroxy(2-methyl-2-azabicyclo[2.2.2]octan-4-yl)methyl)-4-methylpyridazin-3-yl)-5-(trifluoromethyl)phenol]: the pIC50 (Monocyte) is 5.52 to 6.30.

With `CN1CCCC(C(O)c2nnc(-c3ccc(C(F)(F)F)cc3O)c3ccccc23)C1` (stereo not shown) [Compound 9, 2-(4-(hydroxy(1-methylpiperidin-3-yl)methyl)phthalazin-1-yl)-5-(trifluoromethyl)phenol], for the setting “Homo sapiens, Monocyte”, the pIC50 was over 6.30.

Values taken from patent publication US20230295113A1, “NLRP3 MODULATORS” (ZOMAGEN BIOSCIENCES LTD, priority 2022, published 2023).
